Data from patent US11865124B2, “Vitamin c and doxycycline: a synthetic lethal combination therapy for eradicating cancer stem cells (CSCS)” (priority 2017, dated 2024).
Where two headings read alike, the source gives them in different places. Values belong to the compound of their own block, whether it stands above or below them.

Columns and labels:
MCF7-DoxyR cells [1] = assay: Mammosphere formation assay (CSC propagation) in doxycycline-resistant MCF7 cells; format: cell-based
Excerpt: To test this hypothesis, the inventors generated a cancer cell sub-population metabolically synchronized toward a glycolytic phenotype by chronically treating MCF7 cells with the FDA-approved antibiotic doxycycline, a mitochondrial inhibitor. Briefly, MCF7 cells were obtained from ATCC and cultured in DMEM (Sigma Aldrich). MCF7 cells resistant to doxycycline (MCF7-DoxyR cells) were selected by a stepwise exposure to increasing concentrations of doxycycline. […] It should be appreciated that other cancer cell lines and other mitochondrial (oxidation) inhibitors may be used.
To more directly assess functional CSC activity, mammosphere formation assays may be used. Briefly, a single cell suspension of MCF7 or MCF7 DoxyR cells may be prepared using enzymatic (1× Trypsin-EDTA, Sigma Aldrich), and manual disaggregation (25-gauge needle). Cells may be plated at a density of 500 cells/cm2 in mammosphere medium (DMEM-F12/B27/20-ng/ml EGF/PenStrep) in nonadherent conditions, in culture dishes coated with (2-hydroxyethylmethacrylate) (poly-HEMA, Sigma), in the presence of Atovaquone (FIG. 6A) or Chloroquine (FIG. 6B). Cells may be grown for 5 days and maintained in a humidified incubator at 37° C. at an atmospheric pressure in 5% (v/v) carbon dioxide/air. After 5 days for culture, spheres larger than 50 μm may be counted using an eye piece graticule, and the percentage of cells plated which formed spheres may be calculated. Mammosphere assays may be performed in triplicate and repeated three times independently.
The present approach further involves methods of testing the efficacy of glycolysis inhibitors on CSC propagation using other clinically-approved drugs that functionally behave as OXPHOS inhibitors (Irinotecan, Sorafenib, Niclosamide) or glycolysis inhibitors (Stiripentol) on mammosphere formation. Briefly, MCF7 DoxyR cells were cultured in low attachment plates and treated with Vehicle or increasing concentrations of the lactate dehydrogenase (LDH) inhibitor Stiripentol (2 μM to 100 μM) (FIG. 11A) or the OXPHOS inhibitors Irinotecan (500 nM to 80 μM) (FIG. 11B), Sorafenib (500 nM to 40 μM) (FIG. 11C), Berberine Chloride (500 nM to 10 μM) (FIG. 11D) and Niclosamide (FIG. 11E-F) for 5 days before counting. Independent experiments were performed in triplicate.

MCF7 CSCs = settings: control MCF7 CSCs; Bonuccelli et al, Oncotarget 2017; read-out: IC-50, MCF7 CSC propagation; cited from earlier work
MCF7-DoxyR cells [2] = assay: Proliferation assay by EdU incorporation (flow cytometry); format: cell-based; settings: MCF7-DoxyR cells (chronic doxycycline) vs MCF7 cells
Excerpt: To test this hypothesis, the inventors generated a cancer cell sub-population metabolically synchronized toward a glycolytic phenotype by chronically treating MCF7 cells with the FDA-approved antibiotic doxycycline, a mitochondrial inhibitor. Briefly, MCF7 cells were obtained from ATCC and cultured in DMEM (Sigma Aldrich). MCF7 cells resistant to doxycycline (MCF7-DoxyR cells) were selected by a stepwise exposure to increasing concentrations of doxycycline. Specifically, MCF7 cells were initially exposed to 12.5 μM doxycycline, followed by 3 weeks of treatment with 25 μM doxycycline, followed by 3 weeks of treatment with 50 μM doxycycline. […]
To determine functional effects on doxycycline on CSC propagation, proliferation may be measured by determining relative levels of EdU incorporation (EdU refers to the alkyne-containing thymidine analog (5-ethynyl-2′-deoxyuridine) which is incorporated into DNA during active DNA synthesis). […] EdU was detected after permeabilization by staining cells with Click-iT Plus reaction cocktail containing the Fluorescent dye picolylazide for 30 min at room temperature. Samples were then washed and analyzed using flow cytometer. […] Data were analyzed using FlowJo software. FIGS. 7A-B show MCF7-DoxyR cells have a reduced ability to proliferate by more than 60%, as measured using EdU-incorporation.

MCF7-DoxyR cells [3] = assay: Cell migration, wound healing scratch assay; format: cell-based; settings: MCF7-DoxyR cells (chronic doxycycline) vs MCF7 cells, 24 h
Excerpt: To test this hypothesis, the inventors generated a cancer cell sub-population metabolically synchronized toward a glycolytic phenotype by chronically treating MCF7 cells with the FDA-approved antibiotic doxycycline, a mitochondrial inhibitor. Briefly, MCF7 cells were obtained from ATCC and cultured in DMEM (Sigma Aldrich). MCF7 cells resistant to doxycycline (MCF7-DoxyR cells) were selected by a stepwise exposure to increasing concentrations of doxycycline. Specifically, MCF7 cells were initially exposed to 12.5 μM doxycycline, followed by 3 weeks of treatment with 25 μM doxycycline, followed by 3 weeks of treatment with 50 μM doxycycline. The doxycycline-resistant MCF7 cells were then routinely maintained in regular medium supplemented with 25 μM Doxycycline. It should be appreciated that other cancer cell lines and other mitochondrial (oxidation) inhibitors may be used.
The present approach further involves methods of analyzing the effects of chronic treatment on functionality by considering cell migration. […] The migration assay was evaluated using Incucyte Zoom (Essen Bioscience). The rate of migration was measured by quantifying the % of wound closure area, determined using the software ImageJ, according to the formula: % of wound closure=[(At=0 h−At=Δ h)/At=0 h]×100%. […] Statistical significance was measured using the t-test. […]

[4] = Homo sapiens, mammosphere formation, MCF7 DoxyR cells, read-out: IC-50, DoxyR CSC propagation
[5] = Homo sapiens, 120 h, mammosphere formation, MCF7 DoxyR cells, 5 days, read-out: IC-50, DoxyR CSC propagation
[6] = Homo sapiens, MCF7, 120 h, read-out: inhibition of CSC propagation of MCF7-DoxyR cells

Structure (SMILES): O=C1O[C@H]([C@@H](O)CO)C(O)=C1O [Vitamin C, ascorbic acid]
- inhibition at 250 µM (MCF7-DoxyR cells [1]; Homo sapiens, MCF7, 250 μM Vitamin C): > 90%
- inhibition at 500 µM (MCF7-DoxyR cells [1]; Homo sapiens, MCF7, 500 μM Vitamin C): 100%
- IC50 (MCF7-DoxyR cells [1]; [4]): 100 to 250 µM
- fold more sensitive, DoxyR CSCs vs control MCF7 CSCs (MCF7-DoxyR cells [1]; ratio of IC-50 in MCF7 CSCs to DoxyR CSCs, identical assay conditions): 4-10 fold
- IC50 (MCF7 CSCs): 1000 µM

Structure (SMILES): O=C1C(O)=C([C@H]2CC[C@H](c3ccc(Cl)cc3)CC2)C(=O)c2ccccc21 [Atovaquone]
- inhibition at 1 µM (MCF7-DoxyR cells [1]; Homo sapiens, MCF7, 120 h, 1 μM Atovaquone, mammospheres, 5 days): > 85%

Structure (SMILES): C[C@H]1c2cccc(O)c2C(=O)C2=C(O)[C@]3(O)C(=O)C(C(N)=O)=C(O)[C@@H](N(C)C)[C@@H]3[C@@H](O)[C@@H]21 [doxycycline]
- reduction in ability to proliferate (EdU-incorporation) (MCF7-DoxyR cells [2]): more than 60%
- reduction in cell migration (scratch assay) (MCF7-DoxyR cells [3]): greater than 50%

Structure (SMILES): CNC(=O)c1cc(Oc2ccc(NC(=O)Nc3ccc(Cl)c(C(F)(F)F)c3)cc2)ccn1 [Sorafenib]
- IC50 (MCF7-DoxyR cells [1]; Homo sapiens, MCF7, read-out: IC-50, DoxyR CSC propagation): 0.5 to 1 µM

Structure (SMILES): O=CC[C@@H](O)[C@H](O)[C@H](O)CO [2-DG, 2-deoxy-glucose]
- inhibition at 10000 µM (MCF7-DoxyR cells [1]; Homo sapiens, MCF7, 10 mM 2-DG, read-out: inhibition of propagation of DoxyR CSCs): > 90%
- inhibition at 20000 µM (MCF7-DoxyR cells [1]; Homo sapiens, MCF7, 20 mM 2-DG, read-out: inhibition of propagation of DoxyR CSCs): 100%

Structure (SMILES): CCN(CC)CCCC(C)Nc1ccnc2cc(Cl)ccc12 (centres unmarked) [Chloroquine]
- inhibition at 25 µM (MCF7-DoxyR cells [1]; [6]): > 75%
- inhibition at 50 µM (MCF7-DoxyR cells [1]; [6]): > 90%

Results, then the compound that gave them:

- IC50 (MCF7-DoxyR cells [1]; [4]): 10 to 50 µM
Structure (SMILES): CC(C)(C)C(O)/C=C/c1ccc2c(c1)OCO2 (centres unmarked) [Stiripentol]

- IC50 (MCF7-DoxyR cells [1]; [4]): ~1 µM
Structure (SMILES): COc1ccc2cc3[n+](cc2c1OC)CCc1cc2c(cc1-3)OCO2 [Berberine, Berberine Chloride]

- IC50 (MCF7-DoxyR cells [1]; [5]): ~0.1 µM
Structure (SMILES): O=C(Nc1ccc([N+](=O)[O-])cc1Cl)c1cc(Cl)ccc1O [Niclosamide]

- IC50 (MCF7-DoxyR cells [1]; [5]): ~0.5 µM
Structure (SMILES): CCc1c2c(nc3ccc(OC(=O)N4CCC(N5CCCCC5)CC4)cc13)-c1cc3c(c(=O)n1C2)COC(=O)[C@]3(O)CC [Irinotecan]
